Data reported in the supplement of paper PMC10307832.

How the values were obtained:
Assay in all cases: relative viability (nuclei count vs DMSO), 5 days (fraction); higher = more cells survive
[1] = compound: C1COCCN1C2=NC(=NC3=C2OC4=C3C=CC=N4)C5=CC(=CC=C5)NC(=O)C6=CN=C(C=C6)N + Cc1nc(NC(=O)N2CCC[C@H]2C(N)=O)sc1-c1ccnc(C(C)(C)C(F)(F)F)c1 [Alpelisib] (partner 2 µM)
How it was run: (§1)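 Lung cancer cell lines were pin-tool dosed in 1536-well plates on the day after seeding, with either a lone drug or a fixed anchor-drug dose plus five library-drug doses (not always all listed) in √10 steps. Nuclei were counted on 4× images after 5 days. Relative viability is the ratio of treated-well to vehicle-well nuclei counts, with each value a median of duplicate plates.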

SGI-1776 + Tozasertib = compound: CN1CCC(CNc2ccc3ncc(-c4cccc(OC(F)(F)F)c4)n3n2)CC1 [SGI-1776] + Cc1cc(Nc2cc(N3CCN(C)CC3)nc(Sc3ccc(NC(=O)C4CC4)cc3)n2)n[nH]1 [Tozasertib] (partner 0.1 µM)
How it was run: as §1

Entinostat + Navitoclax = compound: Nc1ccccc1NC(=O)c1ccc(CNC(=O)OCc2cccnc2)cc1 [Entinostat] + CC1(C)CCC(c2ccc(Cl)cc2)=C(CN2CCN(c3ccc(C(=O)NS(=O)(=O)c4ccc(N[C@H](CCN5CCOCC5)CSc5ccccc5)c(S(=O)(=O)C(F)(F)F)c4)cc3)CC2)C1 [Navitoclax] (partner 0.5 µM)
How it was run: as §1

Entinostat + AZD7762 = compound: Nc1ccccc1NC(=O)c1ccc(CNC(=O)OCc2cccnc2)cc1 [Entinostat] + NC(=O)Nc1cc(-c2cccc(F)c2)sc1C(=O)N[C@H]1CCCNC1 [AZD7762] (partner 0.2 µM)
How it was run: as §1

Row | Cell Line | relative viability ([1]; first compound 0.02 µM) | relative viability ([1]; first compound 0.06325 µM) | relative viability ([1]; first compound 0.2 µM) | relative viability ([1]; first compound 0.6325 µM) | relative viability ([1]; first compound 2 µM) | relative viability (SGI-1776 + Tozasertib; first compound 0.08 µM) | relative viability (SGI-1776 + Tozasertib; first compound 0.8 µM) | relative viability (SGI-1776 + Tozasertib; first compound 2.53 µM) | relative viability (SGI-1776 + Tozasertib; first compound 8 µM) | relative viability (Entinostat + Navitoclax; first compound 0.02 µM) | relative viability (Entinostat + Navitoclax; first compound 0.06325 µM) | relative viability (Entinostat + Navitoclax; first compound 0.2 µM) | relative viability (Entinostat + Navitoclax; first compound 0.6325 µM) | relative viability (Entinostat + Navitoclax; first compound 2 µM) | relative viability (Entinostat + AZD7762; first compound 0.02 µM) | relative viability (Entinostat + AZD7762; first compound 0.06325 µM) | relative viability (Entinostat + AZD7762; first compound 0.2 µM) | relative viability (Entinostat + AZD7762; first compound 0.6325 µM) | relative viability (Entinostat + AZD7762; first compound 2 µM)
1 | NCI-H3122 | 0.808 | 0.798 | 0.681 | 0.772 | 0.676 | 0.443 | 0.343 | 0.334 | 0.2 | 1.04 | 1 | 1.12 | 0.989 | 0.712 | 1.03 | 1.01 | 1.15 | 0.971 | 0.805
2 | NCI-H2126 | 0.778 | 0.726 | 0.732 | 0.753 | 0.627 | 0.926 | 0.607 | 0.553 | 0.239 | 0.849 | 0.833 | 0.855 | 0.548 | 0.396 | 0.936 | 1.03 | 1.01 | 0.737 | 0.495
3 | LU99A | 0.608 | 0.46 | 0.41 | 0.379 | 0.284 | 0.252 | 0.239 | 0.229 | 0.25 | 0.752 | 0.916 | 0.75 | 0.567 | 0.421 | 0.353 | 0.475 | 0.378 | 0.224 | 0.254
4 | NCI-H1666 | 1.02 | 0.906 | 0.794 | 0.775 | 0.549 | 0.667 | 0.44 | 0.406 | 0.436 | 1.13 | 1.09 | 0.861 | 0.463 | 0.277 | 1.07 | 0.918 | 0.812 | 0.835 | 0.519
5 | NCI-H460 | 0.393 | 0.5 | 0.395 | 0.349 | 0.0947 | 0.475 | 0.278 | 0.0744 | 0.0448 | 1.08 | 0.973 | 1.04 | 0.0885 | 0.0187 | 0.65 | 0.651 | 0.559 | 0.233 | 0.0734
